Experimental findings from patent US20170305857A1, “N-ACYLPIPERIDINE ETHER TROPOMYOSIN-RELATED KINASE INHIBITORS” (Pfizer Limited, priority 2014, published 2017) are described below.

For the assay, the target named is T1, recombinant His-tagged cytoplasmic domains of TRKA receptor (NTRK1, PV3144, aa 441-796) (Homo sapiens, UniProt P04629).
T1 construct: aa 441-796; His; purchased Invitrogen PV3144
T1 sequence (P04629 441-796): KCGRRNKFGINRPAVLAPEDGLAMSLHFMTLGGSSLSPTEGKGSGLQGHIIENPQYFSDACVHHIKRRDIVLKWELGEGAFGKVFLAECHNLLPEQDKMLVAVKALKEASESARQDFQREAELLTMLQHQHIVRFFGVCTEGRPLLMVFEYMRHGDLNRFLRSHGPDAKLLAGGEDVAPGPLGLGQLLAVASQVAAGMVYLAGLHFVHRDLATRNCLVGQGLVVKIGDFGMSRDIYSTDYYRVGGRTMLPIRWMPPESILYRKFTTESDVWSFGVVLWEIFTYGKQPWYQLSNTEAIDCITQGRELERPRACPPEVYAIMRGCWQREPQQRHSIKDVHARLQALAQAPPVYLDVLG
Nature of the assay: Isolated TRK enzyme assay (HTRF KinEASE-TK, PV3144 TrkA enzyme assay). Format: biochemical. The settings on record: 4 nM enzyme, 40 uM ATP, 35 min, arithmetic mean where more than one reading. The essentials:
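Enzyme and ATP were preincubated with compound for 20 min at room temperature in buffer with 10 mM MgCl and 2 mM DTT. TK-substrate-Biotin was then added (1 uM final) and the reaction run for an enzyme-specific optimized time. Phosphorylation was read by HTRF, and IC50 values came from sigmoid fits of percent inhibition normalized to plate controls, averaged over replicate readings.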
`Cc1nc(C)c(-c2ccc(OC3CCN(C(=O)Cc4ccc(OC(F)(F)F)cc4)CC3)c(C(N)=O)c2)s1` [Example 143, 5-(2,4-dimethyl-1,3-thiazol-5-yl)-2-[(1-{[4-(trifluoromethoxy)phenyl]acetyl}piperidin-4-yl)oxy]benzamide]: the concentration for half-maximal inhibition (IC50) turned out to be 16.5 nM.
`N#Cc1cc(-c2ccc(OC3CCN(C(=O)Cc4ccc(OC(F)(F)F)cc4)CC3)c(C(N)=O)c2)cs1` [Example 144, 5-(5-cyanothiophen-3-yl)-2-[(1-{[4-(trifluoromethoxy)phenyl]acetyl}piperidin-4-yl)oxy]benzamide]: the 50% inhibitory concentration (IC50) was determined as 16.7 nM.
On to `Cn1cncc1-c1ccc(OC2CCN(C(=O)Cc3ccc(OC(F)(F)F)cc3)CC2)c(C(N)=O)c1` [Example 145, 5-(1-methyl-1H-imidazol-5-yl)-2-[(1-{[4-(trifluoromethoxy)phenyl]acetyl}piperidin-4-yl)oxy]benzamide], for which the half-inhibitory concentration (IC50) worked out at 17.1 nM.
As for `Cc1nc(-c2ccc(OC3CCN(C(=O)Cc4ccc(OC(F)(F)F)cc4)CC3)c(C(N)=O)c2)c[nH]1` [Example 146, 5-(2-methyl-1H-imidazol-4-yl)-2-[(1-{[4-(trifluoromethoxy)phenyl]acetyl}piperidin-4-yl)oxy]benzamide], the IC50 turned out to be 11.6 nM.
On to `Cc1nnc(-c2ccc(OC3CCN(C(=O)Cc4ccc(OC(F)(F)F)cc4)CC3)c(C(N)=O)c2)s1` [Example 147, 5-(5-methyl-1,3,4-thiadiazol-2-yl)-2-[(1-{[4-(trifluoromethoxy)phenyl]acetyl}piperidin-4-yl)oxy]benzamide], for which the half-maximal inhibitory concentration (IC50) stood at 12.6 nM.
`Cn1ccc(-c2ccc(OC3CCN(C(=O)Cc4ccc(OC(F)(F)F)cc4)CC3)c(C(N)=O)c2)n1` [Example 148, 5-(1-methyl-1H-pyrazol-3-yl)-2-[(1-{[4-(trifluoromethoxy)phenyl]acetyl}piperidin-4-yl)oxy]benzamide]: the concentration for half-maximal inhibition (IC50) worked out at 12.6 nM.
The result for `Cn1cc(-c2ccc(OC3CCN(C(=O)Cc4ccc(OC(F)(F)F)cc4)CC3)c(C(N)=O)c2)c(C#N)n1` [Example 149, 5-(3-cyano-1-methyl-1H-pyrazol-4-yl)-2-[(1-{[4-(trifluoromethoxy)phenyl]acetyl}piperidin-4-yl)oxy]benzamide] reads 13.7 nM.
Regarding `NC(=O)c1cc(-c2cccnc2)ccc1OC1CCN(C(=O)Cc2ccc(OC(F)(F)F)cc2)CC1` [Example 150, 5-(pyridin-3-yl)-2-[(1-{[4-(trifluoromethoxy)phenyl]acetyl}piperidin-4-yl)oxy]benzamide], the IC50 was 11 nM.
With `NC(=O)c1cc(-c2ccc(CO)cc2)cnc1OC1CCN(C(=O)Cc2ccc(OC(F)(F)F)cc2)CC1` [Example 151, 5-[4-(hydroxymethyl)phenyl]-2-[(1-{[4-(trifluoromethoxy)phenyl]acetyl}piperidin-4-yl)oxy]pyridine-3-carboxamide], the IC50 worked out at 12 nM.
For the compound `C[C@H](O)c1ccc(-c2cnc(OC3CCN(C(=O)Cc4ccc(OC(F)(F)F)cc4)CC3)c(C(N)=O)c2)cc1` [Example 152, 5-{4-[(1S)-1-hydroxyethyl]phenyl}-2-[(1-{[4-(trifluoromethoxy)phenyl]acetyl}piperidin-4-yl)oxy]pyridine-3-carboxamide], the half-maximal inhibitory concentration (IC50) stood at 12.7 nM.
The result for `CCc1ccc(CC(=O)N2CCC(Oc3ccc(-c4cnn(C)c4)cc3C(N)=O)CC2)cc1` [Example 153, 2-({1-[(4-ethylphenyl)acetyl]piperidin-4-yl}oxy)-5-(1-methyl-1H-pyrazol-4-yl)benzamide] reads 19.3 nM.
Take `Cn1ncc(-c2cnc(O[C@@H]3CCN(C(=O)Cc4ccc(OC(F)(F)F)cc4)C[C@@H]3F)c(C(N)=O)c2)n1` [Example 154, 2-{[(3S,4R)-3-fluoro-1-{[4-(trifluoromethoxy)phenyl]acetyl}piperidin-4-yl]oxy}-5-(2-methyl-2H-1,2,3-triazol-4-yl)pyridine-3-carboxamide]: the IC50 was determined as 2.93 nM.
Regarding `Cn1cc(-c2cnc(O[C@@H]3CCN(C(=O)Cc4ccc(OC(F)(F)F)cc4)C[C@@H]3F)c(C(N)=O)c2)nn1` [Example 155, 2-[((3S,4R)-3-fluoro-1-{[4-(trifluoromethoxy)phenyl]acetyl}piperidin-4-yl)oxy]-5-(1-methyl-1H-1,2,3-triazol-4-yl)pyridine-3-carboxamide], the concentration for half-maximal inhibition (IC50) came out at 2.45 nM.
Consider `Cn1cc(-c2cc(C(N)=O)c(O[C@H]3CCN(C(=O)Cc4ccc(OC(F)(F)F)cc4)C[C@H]3F)nn2)cn1` [Example 156, 3-{[(3R,4S)-3-fluoro-1-{[4-(trifluoromethoxy)phenyl]acetyl}piperidin-4-yl]oxy}-6-(1-methyl-1H-pyrazol-4-yl)pyridazine-4-carboxamide], for which the IC50 was determined as 4.16 nM.
In the case of `Cn1cc(-c2cc(C(N)=O)c(O[C@@H]3CCN(C(=O)Cc4ccc(OC(F)(F)F)cc4)C[C@@H]3F)nn2)cn1` [Example 157, 3-{[(3S,4R)-3-fluoro-1-{[4-(trifluoromethoxy)phenyl]acetyl}piperidin-4-yl]oxy}-6-(1-methyl-1H-pyrazol-4-yl)pyridazine-4-carboxamide], the IC50 came out at 7.24 nM.
With `Cn1cnc(-c2ccc(O[C@H]3[C@@H]4CO[C@H]3CN(C(=O)Cc3ccc(OC(F)(F)F)cc3)C4)c(C(N)=O)c2)c1` [Example 158, 5-(1-methyl-1H-imidazol-4-yl)-2-{[(1S,5S,8S)-3-{[4-(trifluoromethoxy)phenyl]acetyl}-6-oxa-3-azabicyclo[3.2.1]oct-8-yl]oxy}benzamide] the figure was 18.4 nM; with `Cn1cnc(-c2ccc(OC3CCN(C(=O)Cc4ccc(OC(F)(F)F)cc4)C4CC34)c(C(N)=O)c2)c1` (stereo not shown) [Example 159, 5-(1-methyl-1H-imidazol-4-yl)-2-[(2-{[4-(trifluoromethoxy)phenyl]acetyl}-2-azabicyclo[4.1.0]hept-5-yl)oxy]benzamide], 17.8 nM; with `NC(=O)c1cc(-n2cc(CO)cn2)cnc1O[C@@H]1CCN(C(=O)Cc2ccc(OC(F)(F)F)cc2)C[C@@H]1F` [Example 160, 2-{[(3S,4R)-3-fluoro-1-{[4-(trifluoromethoxy)phenyl]acetyl}piperidin-4-yl]oxy}-5-[4-(hydroxymethyl)-1H-pyrazol-1-yl]pyridine-3-carboxamide], 8.46 nM.
In the case of `Cc1cn(-c2cnc(O[C@@H]3CCN(C(=O)Cc4ccc(OC(F)(F)F)cc4)C[C@@H]3F)c(C(N)=O)c2)cn1` [Example 162, 2-(((3S,4R)-3-fluoro-1-(2-(4-(trifluoromethoxy)phenyl)acetyl)piperidin-4-yl)oxy)-5-(4-methyl-1H-imidazol-1-yl)nicotinamide], the half-maximal inhibitory concentration (IC50) worked out at 12.3 nM.
Turning to `CC(C)(O)Cn1cc(-c2cnc(O[C@H]3CCN(C(=O)Cc4ccc(OC5CC5)cn4)C[C@@H]3F)c(C(N)=O)c2)cn1` [Example 163, 2-{[(3S,4S)-1-{[5-(cyclopropyloxy)pyridin-2-yl]acetyl}-3-fluoropiperidin-4-yl]oxy}-5-[1-(2-hydroxy-2-methylpropyl)-1H-pyrazol-4-yl]pyridine-3-carboxamide], the IC50 was 16.6 nM.
Regarding `CS(=O)(=O)Cn1cc(-c2cc(C(N)=O)c(O[C@H]3CCN(C(=O)Cc4ccc(OC5CC5)cc4)C[C@@H]3F)cn2)cn1` [Example 165, 5-{[(3S,4S)-1-{[4-(cyclopropyloxy)phenyl]acetyl}-3-fluoropiperidin-4-yl]oxy}-2-{1-[(methylsulfonyl)methyl]-1H-pyrazol-4-yl}pyridine-4-carboxamide], the IC50 was determined as 15.9 nM.
In the case of `CS(=O)(=O)Cn1cc(-c2cc(C(N)=O)c(O[C@H]3CCN(C(=O)Cc4ccc(OC(F)(F)F)cc4)C[C@@H]3F)cn2)cn1` [Example 166, 5-{[(3S,4S)-3-fluoro-1-{[4-(trifluoromethoxy)phenyl]acetyl}piperidin-4-yl]oxy}-2-{1-[(methylsulfonyl)methyl]-1H-pyrazol-4-yl}pyridine-4-carboxamide], the 50% inhibitory concentration (IC50) is 12.8 nM.
On to `Cc1n[nH]c(C)c1-c1cnc(O[C@H]2CCN(C(=O)Cc3ccc(OC4CC4)cn3)C[C@@H]2F)c(C(N)=O)c1` [Example 167, 2-{[(3S,4S)-1-{[5-(cyclopropyloxy)pyridin-2-yl]acetyl}-3-fluoropiperidin-4-yl]oxy}-5-(3,5-dimethyl-1H-pyrazol-4-yl)pyridine-3-carboxamide], for which the half-inhibitory concentration (IC50) is 19.4 nM.
As to `Cn1cnc(-c2ccc(OC3CCN(C(=O)Cc4ccc(OC(C)(F)F)cn4)CC3)c(C(N)=O)c2)c1` [Example 168, 2-[(1-{[5-(1,1-difluoroethoxy)pyridin-2-yl]acetyl}piperidin-4-yl)oxy]-5-(1-methyl-1H-imidazol-4-yl)benzamide], the 50% inhibitory concentration (IC50) was determined as 17.3 nM.
On to `NC(=O)c1cc(-c2cn[nH]c2)ncc1OC1CCN(C(=O)Cc2ccc(OC(F)(F)F)c(F)c2)CC1` [Example 169, 5-[(1-{[3-fluoro-4-(trifluoromethoxy)phenyl]acetyl}piperidin-4-yl)oxy]-2-(1H-pyrazol-4-yl)pyridine-4-carboxamide], for which the IC50 amounted to 11.8 nM.
As for `Cc1cc(OC2CCN(C(=O)Cc3ccc(OC(F)(F)F)cc3)CC2)c(C(N)=O)cc1-c1cn(C)cn1` [Example 170, 4-methyl-5-(1-methyl-1H-imidazol-4-yl)-2-[(1-{[4-(trifluoromethoxy)phenyl]acetyl}piperidin-4-yl)oxy]benzamide], the IC50 turned out to be 17.6 nM.
Turning to `Cn1cc(-c2ccc(OC3CCN(C(=O)Cc4ccc(OC5CC5)cn4)CC3)c(C(N)=O)c2)cn1` [Example 173, 2-[(1-{[5-(cyclopropyloxy)pyridin-2-yl]acetyl}piperidin-4-yl)oxy]-5-(1-methyl-1H-pyrazol-4-yl)benzamide], the IC50 amounted to 11.4 nM.
Take `NC(=O)c1cc(-c2cn(CCO)nn2)ccc1OC1CCN(C(=O)Cc2ccc(OC(F)(F)F)cc2)CC1` [Example 174, 5-[1-(2-hydroxyethyl)-1H-1,2,3-triazol-4-yl]-2-[(1-{[4-(trifluoromethoxy)phenyl]acetyl}piperidin-4-yl)oxy]benzamide]: the half-maximal inhibitory concentration (IC50) came to 19.1 nM.

By IC50 is commonly meant the midpoint of a concentration-inhibition curve.
